Data reported in patent publication US8217071B2, “Use of inhibitors of the degradation of p27, in particular Argyrin and derivatives thereof, for the treatment of proliferative diseases” (Helmholtz Zentrum für Infektionsforschung GmbH, priority 2007, dated 2012).
Numbered stars: 1 amine (or outer) side, 2 acyl side, 3 side chain; on linkers, the order of the positions; unused ones are H or OH. Square brackets hold non-standard residues; d marks the D form. Peptide text beside a SMILES is read from it. dAla(ψthiazole) = C[C@@H](N[*:1])c1nc(C(=O)[*:2])cs1; Trp(4-OMe) = COc1cccc2[nH]cc(C[C@H](N)C(=O)O)c12; Dha = C=C(N)C(=O)O; Sar = CNCC(=O)O

How the values were obtained:
[1] = tested on: mouse embryonic fibroblasts from p27^kip1 knockout mice; assay: Apoptosis (sub-G1 fraction) by flow cytometry in p27 knockout MEF; type: cell-based; details: for apoptosis in p27 knockout MEF: sub G1 fraction
Text: Next the inventors tested whether the stabilization of p27 was indeed required for the apoptosis inducing function of Argyrin A or was merely a consequence of proteasome inhibition. For this the inventors treated immortalized mouse embryonic fibroblasts from p27^kip1 wildtype or knockout mice with Argyrin A or the proteasome inhibitor bortezomib and assayed cell cycle distribution and apoptosis by flow cytometry. […] These differences in sensitivity in response to Argyrin A treatment were not due to differences in the accumulation of other proteasomal substrates in p27 wildtype and knockout cells as p53 and p21 levels increased in both cell lines in response to Argyrin A (FIG. 6B). To extend this observation to human cancer cells the inventors reduced the levels of p27^kip1 in HeLa cells using p27^kip1 specific siRNA.
The results shown are the average numbers for six independent experiments. b+d) Wildtype (b) and p27 knockout (d) MEF were treated with Argyrin A or transfected with siRNAs specific for the β1, β2 or β5 subunit of the proteasome for 24 hours. The graphs show the remaining catalytic activity of the different proteasome subunits after Argyrin A or siRNA treatment compared to an untreated control (n=3). The western blots show the expression of the β1, β2 or β5 subunit of the proteasome in proliferating cells and after treatment with siRNAs for a representative experiment. c+e) Flow cytometric measurements of the number of apoptotic cells (sub-G1 fraction) after Argyrin A or siRNA treatment in wildtype (c) or p27 knockout (E) MEF. f) HeLa cells were treated with Argyrin A or siRNA against p27 or Argyrin A and siRNA against p27 for either 24 or 48 hours.
(§1) MTT assays were done as previously described (Sasse, F. et al. Argyrins, immunosuppressive cyclic peptides from myxobacteria. I. Production, isolation, physico-chemical and biological properties. J Antibiot (Tokyo) 55, 543-51 (2002)). TUNEL staining of tissue sections was performed on 10 micrometer sections which were deparafinised and treated as recommended by the manufacturer. (In Situ Cell Death Detection Kit, Fluorescein; ROCHE, Cat #11 684 795 910). Flow cytometric analysis of cultured cells was done using a Becton Dickinson fluorescence cytometer as previously described (Malek, N. P. et al. A mouse knock-in model exposes sequential proteolytic pathways that regulate p27^Kip1 in G1 and S phase. Nature 413, 323-7 (2001)). Analysis of the distribution of cells in the cell cycle and the sub-G1 fraction was done using Cell Quest software. A histone-associated-DNA-fragments ELISA was used to determine the number of apoptotic cells according to manufacturers instructions (Roche #11 774425001).

[2] = tested on: SW480 colon carcinoma xenotransplant tumours; assay: SW480 xenotransplant tumours in nu/nu mice; type: in vivo, mouse; details: for proteasome activity in the primary tumour tissue: single dose
Method: At the indicated timepoints 20S proteasome was isolated from peripheral blood cells and the activity of the different proteasome subunits was determined as described (FIG. 1d). b) SW480 colon carcinoma cell lines mixed with matrigel were injected under the skin of nu/nu mice to establish xenotransplant tumours. Treatment with Argyrin A or bortezomib was started when these tumours reached a volume of 200 mm^3. […] The activity of the respective proteasome subunits was determined as described previously (FIG. 1d). e) Determination of the number of p27^kip1 positive cells in tumour tissue after Argyrin A treatment. The pictures show representative samples of immunohistochemical stainings for p27 in tumour tissues after 10 days of Argyrin A treatment. f) Detection of apoptotic cells in xenotransplanted tumours by TUNEL staining of tumour tissues after treatment with Argyrin A or bortezomib. At least 200 cells were counted on five independent sections to quantitate the number of apoptotic cells.
as §1
Proteasome assays using proteasome purified from cells or tissues were carried out in a 100 μL reaction volume containing 20 μg proteasome extract, 50 mmol/L EDTA and 60 μmol/L fluorogenic substrate (chymotrypsin-like (CT-L), trypsin-like (T-L) or caspase-like (C-L)) in ATP/DTT lysis buffer at 37° C. The assay buffer was supplemented with a final concentration of 0.05% SDS for the evaluation of the chymotrypsin-like activity and caspase-like activity. The rate of cleavage of fluorogenic peptide substrates was determined by monitoring the fluorescence of released amonomethylcoumarin using a Victor 1420 Multilabel counter (Wallac) at an excitation wavelength of 395 nm and emission wavelength of 460 nm over a period of 60 min.
1×10^7 SW480 cells or HCT116 cells (in 100 microliters DMEM medium and 100 microliters matrigel) were s.c. injected into the flanks of NMRI nu/nu mice. Tumours grew for approx. 18 days until they reached appropriate size (200 mm3). Tumour size was measured with a digital calliper and calculated with the help of the following formula: (Length×width2)*π/6. All experiments were done after review and in accordance with the animal rights and protection agencies of Lower Saxony, Germany.

Compound: CC(C)C[C@H](NC(=O)[C@H](Cc1ccccc1)NC(=O)c1cnccn1)B(O)O [bortezomib, reference compound]
- apoptosis in p27 knockout MEF [1]: massive apoptosis
- apoptosis in p27 knockout MEF ([1]; listed as Bortezomib): induced apoptosis
- proteasome activity in the primary tumour tissue [2]: significant reduction

Compound: C=C1NC(=O)[C@@H](C)NC(=O)CNC(=O)[C@H](Cc2c[nH]c3cccc(OC)c23)NC(=O)[C@H](Cc2c[nH]c3ccccc23)NC(=O)c2csc(n2)[C@@H](C)NC(=O)CN(C)C1=O [Argyrin A] (cyclo(W[Trp(4-OMe)]G[dA][Dha][Sar][dAla(ψthiazole)]))
- p27^kip1 knockout fibroblasts undergoing apoptotic cell death ([1]; after 60 hours of treatment): ten
- apoptosis, share of all fibroblasts derived from p27 knockout mice ([1]; comparable levels of proteasome inhibition, 24 hours): 5%
- size of the xenotransplanted tumours ([2]; SW480, 0.15 mg/kg i.p. every three days): significant reduction
- apoptotic cell death, share of all tumor cells ([2]; SW480 xenograft, TUNEL staining): > 60%
- p27^kip1 in tumour tissue ([2]; SW480 xenograft, immunohistochemistry): induction
- proteasome activity in the primary tumour tissue [2]: significant reduction
